# Source: patent US11878074B2, “Methods of use of emulsion formulations of an NK-1 receptor antagonist” (Heron Therapeutics, Inc., priority 2016, dated 2024)
# Experiment: Pharmacokinetics of aprepitant emulsion, intravenous injection, plasma LC-MS/MS
# Type: in vivo, Sprague-Dawley rats
# Details: rat, i.v., equivalent to 14 mg/kg aprepitant, by the 3-hour time point
# Method: Blood from all rats was collected at the appropriate time intervals and processed to plasma by centrifugation. Plasma samples were analyzed by LC-MS/MS for aprepitant and fosaprepitant, as appropriate. […] The curves indicate the initial aprepitant level reached immediately after injection of the aprepitant emulsion was almost 3 times higher than the initial aprepitant level reached immediately after injection of the fosaprepitant solution.
smiles,measurement,value
C[C@@H](O[C@H]1OCCN(Cc2nc(O)n(P(=O)(O)O)n2)[C@H]1c1ccc(F)cc1)c1cc(C(F)(F)F)cc(C(F)(F)F)c1 [fosaprepitant],"Plasma levels of aprepitant, emulsion versus fosaprepitant solution",essentially the same
